In ChEMBL document CHEMBL1201862, “PubChem BioAssay data set” (2004):
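Dose response: 5 concentrations. Exposure: 48 h. Format: 96-well plates. Endpoint: linear interpolation; highest concentration if not reached. GI50 is the concentration that inhibits growth by half.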 Calls of active or inactive are those of the source. Rule as the data show it: active = GI50 up to about 1.1 µM and inactive = higher.

Columns and labels:
Test in all cases: NCI anticancer screen, dose series, 48 h
[1] = test system: 786-0
[2] = test system: A549
[3] = test system: ACHN
[4] = test system: BT-549
[5] = test system: CAKI-1
[6] = test system: CCRF-CEM
[7] = test system: COLO 205
[8] = test system: DU-145
[9] = test system: EKVX
[10] = test system: HCC 2998
[11] = test system: HCT-116
[12] = test system: HCT-15
[13] = test system: HL-60
[14] = test system: HOP-62
[15] = test system: HOP-92
[16] = test system: HT-29
[17] = test system: Hs-578T
[18] = test system: IGROV-1
[19] = test system: KM12
[20] = test system: LOX IMVI
[21] = test system: M14
[22] = test system: MCF7
[23] = test system: MDA-MB-231
[24] = test system: MDA-MB-435
[25] = test system: MDA-N
[26] = test system: MOLT-4
[27] = test system: NCI-H226
[28] = test system: NCI-H23
[29] = test system: NCI-H460
[30] = test system: NCI-H522
[31] = test system: NCI/ADR-RES
[32] = test system: OVCAR-3
[33] = test system: OVCAR-4
[34] = test system: OVCAR-5
[35] = test system: OVCAR-8
[36] = test system: PC-3
[37] = test system: RXF 393
[38] = test system: SF-268
[39] = test system: SF-295
[40] = test system: SF-539
[41] = test system: SK-MEL-28
[42] = test system: SK-MEL-2
[43] = test system: SK-MEL-5
[44] = test system: SK-OV-3
[45] = test system: SN12C
[46] = test system: SNB-19
[47] = test system: SNB-75
[48] = test system: SW-620
[49] = test system: TK-10
[50] = test system: U-251
[51] = test system: UACC-257
[52] = test system: UACC-62
[53] = test system: UO-31
[54] = test system: A498
[55] = test system: Malme-3M
[56] = test system: SR
[57] = test system: K562
[58] = test system: RPMI-8226
[59] = test system: T47D

Measured: GI50

CCOc1ccccc1/C=C1\NC(=O)N(/C=C2\C(=O)Oc3ccccc3C2=O)C1=O
53.8 µM: [12]
inactive: [1] 50.9 µM | [2] 42.6 µM | [3] 50.6 µM | [4] 50.9 µM | [5] 99.1 µM | [6] 24.2 µM | [7] 47.4 µM | [8] 44.5 µM | [9] 51.6 µM | [10] 74 µM | [11] 39.1 µM | [13] 20.5 µM | [14] 53.1 µM | [15] 21 µM | [16] 65.5 µM | [17] 46.7 µM | [18] 35.7 µM | [19] 43 µM | [20] 63.7 µM | [21] 51.4 µM | [22] 46.2 µM | [23] 44.6 µM | [24] 42.6 µM | [25] 42 µM | [26] 26.7 µM | [27] 35.5 µM | [28] 31.3 µM | [29] 39.4 µM | [30] 29.2 µM | [31] 46 µM | [32] 30.8 µM | [33] 44.2 µM | [34] > 100 µM | [35] 80.9 µM | [36] 42.5 µM | [37] 9.82 µM | [38] > 100 µM | [39] 44.5 µM | [40] 78.5 µM | [41] 62.4 µM | [42] 45.9 µM | [43] 23.9 µM | [44] 59.7 µM | [45] 43.6 µM | [46] 61.7 µM | [47] 69.2 µM | [48] 51.5 µM | [49] 24.8 µM | [50] 47 µM | [51] 40.1 µM | [52] 32.8 µM | [53] 23.1 µM

O=C1Nc2nnc(S)n2NC12c1ccccc1-c1ccccc12
inactive: [1] > 100 µM | [54] > 100 µM | [2] > 100 µM | [3] > 100 µM | [4] > 100 µM | [5] 57.3 µM | [7] > 100 µM | [8] > 100 µM | [9] > 100 µM | [10] > 100 µM | [11] 24.2 µM | [13] > 100 µM | [14] > 100 µM | [15] > 100 µM | [16] > 100 µM | [17] > 100 µM | [18] 96.6 µM | [20] 58.9 µM | [21] 52 µM | [22] 33.2 µM | [23] > 100 µM | [24] 16.8 µM | [25] 34.5 µM | [55] > 100 µM | [27] > 100 µM | [28] > 100 µM | [29] 39.4 µM | [30] > 100 µM | [31] > 100 µM | [32] > 100 µM | [33] 19.1 µM | [34] > 100 µM | [35] > 100 µM | [36] > 100 µM | [37] > 100 µM | [38] 65.2 µM | [39] > 100 µM | [40] > 100 µM | [41] > 100 µM | [42] > 100 µM | [43] > 100 µM | [44] > 100 µM | [45] > 100 µM | [46] > 100 µM | [47] > 100 µM | [56] 33 µM | [48] > 100 µM | [49] > 100 µM | [50] > 100 µM | [51] 17.2 µM | [52] 22.4 µM | [53] > 100 µM
97.3 µM: [12]

O=C(CBr)c1ccc2cc(Br)c3ccccc3c2c1
inactive: [1] 37.6 µM | [2] 27.2 µM | [3] 52.1 µM | [4] 18.2 µM | [5] 18.2 µM | [6] 33.3 µM | [7] 24.1 µM | [8] 22.8 µM | [9] 24.5 µM | [10] 54.2 µM | [11] 40.3 µM | [13] 25.9 µM | [14] 37.4 µM | [15] 20.9 µM | [16] 32.3 µM | [17] 25.8 µM | [18] 29.6 µM | [57] 26.7 µM | [19] 17.8 µM | [20] 36.3 µM | [21] 25.1 µM | [22] 26.4 µM | [23] 18.2 µM | [24] 19.9 µM | [26] 4.25 µM | [55] 15.9 µM | [27] 9.33 µM | [28] 14.7 µM | [29] 23 µM | [30] 16.4 µM | [31] 36.7 µM | [32] 20.6 µM | [33] 25.3 µM | [34] 24.7 µM | [35] 24.2 µM | [36] 21 µM | [58] 20.3 µM | [37] 18.3 µM | [38] 20.3 µM | [39] 24.4 µM | [40] 20.9 µM | [41] 25.1 µM | [42] 20.6 µM | [43] 14.3 µM | [46] 31.9 µM | [47] 25.6 µM | [56] 12.1 µM | [48] 25.2 µM | [49] 21 µM | [50] 46.3 µM | [51] 24 µM | [52] 14.1 µM | [53] 25.6 µM
36.1 µM: [12]

O=S(=O)(O)c1ccc(/N=N/c2ccc(/N=N/c3c(O)ccc4cc(S(=O)(=O)O)ccc34)cc2)cc1
> 100 µM: [12]
inactive: [1] > 100 µM | [2] > 100 µM | [3] > 100 µM | [4] > 100 µM | [5] > 100 µM | [6] > 100 µM | [7] > 100 µM | [9] > 100 µM | [10] > 100 µM | [11] > 100 µM | [13] > 100 µM | [14] > 100 µM | [15] > 100 µM | [16] > 100 µM | [17] > 100 µM | [18] > 100 µM | [57] > 100 µM | [19] > 100 µM | [21] > 100 µM | [22] > 100 µM | [23] > 100 µM | [24] > 100 µM | [26] > 100 µM | [55] > 100 µM | [27] > 100 µM | [28] > 100 µM | [29] > 100 µM | [30] > 100 µM | [31] > 100 µM | [32] > 100 µM | [34] > 100 µM | [35] > 100 µM | [36] > 100 µM | [58] > 100 µM | [37] > 100 µM | [38] > 100 µM | [39] > 100 µM | [40] > 100 µM | [41] > 100 µM | [42] > 100 µM | [43] > 100 µM | [44] > 100 µM | [46] > 100 µM | [47] > 100 µM | [56] > 100 µM | [48] > 100 µM | [49] > 100 µM | [50] > 100 µM | [51] > 100 µM | [52] > 100 µM | [53] 53.3 µM

C[n+]1ccc(/C2=C3\C=CC(=N3)/C(c3cc[n+](C)cc3)=c3/cc/c([nH]3)=C(\c3cc[n+](C)cc3)C3=N/C(=C(/c4cc[n+](C)cc4)C4C=CC2N4)C=C3)cc1
> 100 µM: [12]
inactive: [1] > 100 µM | [54] > 100 µM | [2] 80.2 µM | [3] > 100 µM | [4] > 100 µM | [5] > 100 µM | [6] > 75.7 µM | [7] > 100 µM | [8] > 100 µM | [9] > 100 µM | [10] 84.7 µM | [11] > 81.1 µM | [13] > 100 µM | [14] > 100 µM | [15] > 100 µM | [16] 51.9 µM | [17] > 80 µM | [18] 71.4 µM | [57] > 90.4 µM | [19] 35.9 µM | [20] > 100 µM | [21] > 100 µM | [22] > 100 µM | [23] > 100 µM | [24] > 61.7 µM | [25] > 100 µM | [26] 95.3 µM | [55] > 100 µM | [27] > 75.7 µM | [28] > 100 µM | [29] 32.9 µM | [30] > 100 µM | [31] > 100 µM | [32] > 95.5 µM | [33] > 70 µM | [34] > 100 µM | [35] > 100 µM | [58] > 48.2 µM | [37] > 91.4 µM | [38] > 100 µM | [39] > 100 µM | [40] > 93.5 µM | [41] > 100 µM | [43] 43 µM | [44] > 85.3 µM | [45] > 100 µM | [46] > 100 µM | [47] 51.1 µM | [56] 7.73 µM | [48] > 100 µM | [59] > 100 µM | [49] > 100 µM | [50] 3.93 µM | [51] > 48.5 µM | [52] > 100 µM | [53] > 100 µM
